Inhibition data for 32 compounds are collected here from US20170057955A1, “Pyridopyrimidinone Compounds for Modulating the Catalytic Activity of Histone Lysine Demethylases (KDMs)” (Dong-A Socio Holdings Co., Ltd., priority 2015, published 2017).

The inhibition is how much of the control response was suppressed.

Molecules are shown by their SMILES.

This assay has as its target T1, Recombinant human JARID1B/KDM5B (Homo sapiens, UniProt Q9UGL1).
T1 construct: purchased Active Motif 31432; host or cells: Sf9 insect cells
The experiment in a line: LANCE Ultra TR-FRET JARID1B (KDM5B) demethylase inhibition assay. It counts as biochemical. The settings on record: 0.1 uM of test-compounds, FLAG-JARID1B, 500 nM biotinylated H3K4me3 peptide substrate, 30 min at room temperature. Put shortly:
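FLAG-tagged JARID1B from Sf9 cells, pre-incubated 5 min with 0.1 uM compound (1% DMSO), then 500 nM biotinylated H3K4me3 peptide, 500 uM 2-OG, 25 uM Fe(II), 2 mM ascorbate in pH 7.5 Hepes buffer. After 30 min at room temperature, H3K4me2/1 product detected by TR-FRET (665/590 nm ratio).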
Background: In TR-FRET formats the signal depends on donor and acceptor labels being close together.

T1 sequence (Q9UGL1 whole entry): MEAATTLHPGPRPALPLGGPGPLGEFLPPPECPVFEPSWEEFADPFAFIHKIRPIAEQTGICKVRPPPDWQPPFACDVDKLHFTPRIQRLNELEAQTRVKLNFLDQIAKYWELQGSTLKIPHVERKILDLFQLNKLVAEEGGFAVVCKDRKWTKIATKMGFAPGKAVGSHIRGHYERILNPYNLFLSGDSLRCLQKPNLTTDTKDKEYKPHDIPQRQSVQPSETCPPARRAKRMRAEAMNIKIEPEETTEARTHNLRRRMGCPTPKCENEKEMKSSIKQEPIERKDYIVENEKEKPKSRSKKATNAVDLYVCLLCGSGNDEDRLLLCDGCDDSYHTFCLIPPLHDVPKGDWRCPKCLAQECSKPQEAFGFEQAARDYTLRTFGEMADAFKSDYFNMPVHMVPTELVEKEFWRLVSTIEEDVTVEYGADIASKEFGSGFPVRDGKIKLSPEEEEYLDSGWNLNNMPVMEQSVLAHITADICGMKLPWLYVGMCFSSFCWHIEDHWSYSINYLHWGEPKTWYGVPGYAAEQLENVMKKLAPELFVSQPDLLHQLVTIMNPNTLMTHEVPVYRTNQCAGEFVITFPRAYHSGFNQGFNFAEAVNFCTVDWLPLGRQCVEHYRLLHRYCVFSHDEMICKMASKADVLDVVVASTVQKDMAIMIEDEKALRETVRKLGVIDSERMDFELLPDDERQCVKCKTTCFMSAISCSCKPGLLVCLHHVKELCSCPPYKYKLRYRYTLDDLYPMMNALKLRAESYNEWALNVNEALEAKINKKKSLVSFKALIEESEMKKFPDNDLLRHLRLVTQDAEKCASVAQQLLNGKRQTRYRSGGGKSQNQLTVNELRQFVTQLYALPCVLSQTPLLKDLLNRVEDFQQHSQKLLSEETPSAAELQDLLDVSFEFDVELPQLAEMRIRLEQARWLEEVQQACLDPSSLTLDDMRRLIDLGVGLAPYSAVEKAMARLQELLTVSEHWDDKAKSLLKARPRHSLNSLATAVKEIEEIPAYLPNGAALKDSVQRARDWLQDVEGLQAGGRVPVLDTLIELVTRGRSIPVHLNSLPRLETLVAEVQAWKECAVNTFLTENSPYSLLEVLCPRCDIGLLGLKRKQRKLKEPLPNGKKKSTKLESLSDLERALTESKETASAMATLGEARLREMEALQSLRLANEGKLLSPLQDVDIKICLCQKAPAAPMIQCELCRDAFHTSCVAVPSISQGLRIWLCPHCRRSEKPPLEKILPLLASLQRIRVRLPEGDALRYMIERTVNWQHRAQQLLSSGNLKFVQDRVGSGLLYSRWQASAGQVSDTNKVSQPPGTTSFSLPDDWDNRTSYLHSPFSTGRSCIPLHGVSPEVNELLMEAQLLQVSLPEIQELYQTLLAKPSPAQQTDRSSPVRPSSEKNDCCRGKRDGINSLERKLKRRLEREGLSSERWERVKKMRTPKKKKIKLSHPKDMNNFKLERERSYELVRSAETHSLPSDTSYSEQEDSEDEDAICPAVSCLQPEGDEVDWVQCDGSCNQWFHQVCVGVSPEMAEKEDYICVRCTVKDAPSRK

For the compound `CCN(CC)CCCC(C)Nc1nc(-c2nccc3c(=O)[nH]c(COc4ccc(F)c(Cl)c4)nc23)cs1` (centres unmarked) [Compound 118, 2-((3-chloro-4-fluorophenoxy)methyl)-8-(2-((5-(diethylamino)pentan-2-yl)amino)thiazol-4-yl)pyrido[3,4-d]pyrimidin-4(3H)-one], the inhibition at 0.1 µM fell in the range of 20 to 50%.

Turning to `O=c1[nH]c(COc2ccc(F)c(Cl)c2)nc2c(-c3cscn3)nccc12` [Compound 106, 2-((3-chloro-4-fluorophenoxy)methyl)-8-(thiazol-4-yl)pyrido[3,4-d]pyrimidin-4(3H)-one], the inhibition at 0.1 µM fell in the range of 20 to 50%.

`O=c1[nH]c(COCc2ccccc2)nc2c(-c3csc(NC4CCN(Cc5ccccc5)CC4)n3)nccc12` [Compound 144, 2-((benzyloxy)methyl)-8-(2-((1-benzylpiperidin-4-yl)amino)thiazol-4-yl)pyrido[3,4-d]pyrimidin-4(3H)-one]: the inhibition at 0.1 µM is less than 20%. `CN1CCC(Nc2nc(-c3nccc4c(=O)[nH]c(CCc5ccccc5)nc34)cs2)CC1` [Compound 163, 8-(2-((1-methylpiperidin-4-yl)amino)thiazol-4-yl)-2-phenethylpyrido[3,4-d]pyrimidin-4(3H)-one]: the inhibition at 0.1 µM was in the range of 20 to 50%. On to `O=c1[nH]c(COc2ccc(F)c(Cl)c2)nc2c(-c3cc[nH]n3)nccc12` [Compound 76, 2-((3-chloro-4-fluorophenoxy)methyl)-8-(1H-pyrazol-3-yl)pyrido[3,4-d]pyrimidin-4(3H)-one], for which the inhibition at 0.1 µM is less than 20%. Take `CC(CNc1nc(-c2nccc3c(=O)[nH]c(COc4ccc(F)c(Cl)c4)nc23)cs1)Oc1ccccc1` (centres unmarked) [Compound 123, 2-((3-chloro-4-fluorophenoxy)methyl)-8-(2-((2-phenoxypropyl)amino)thiazol-4-yl)pyrido[3,4-d]pyrimidin-4(3H)-one]: the inhibition at 0.1 µM is less than 20%. Consider `CN1CCN(CCNc2nc(-c3nccc4c(=O)[nH]cnc34)cs2)CC1` [Compound 45, 8-(2-((2-(4-methylpiperazin-1-yl)ethyl)amino)thiazol-4-yl)pyrido[3,4-d]pyrimidin-4(3H)-one], for which the inhibition at 0.1 µM is 20 to 50%. For the compound `O=c1[nH]c(COc2ccc(F)c(Cl)c2)nc2c(-c3csc(NCCc4ccc(Cl)c(Cl)c4)n3)nccc12` [Compound 108, 2-((3-chloro-4-fluorophenoxy)methyl)-8-(2-((3,4-dichlorophenethyl)amino)thiazol-4-yl)pyrido[3,4-d]pyrimidin-4(3H)-one], the inhibition at 0.1 µM was less than 20%. For `CN(C)CCNc1nc(-c2nccc3c(=O)[nH]c(COCc4ccccc4)nc23)cs1` [Compound 148, 2-((benzyloxy)methyl)-8-(2-((2-(dimethylamino)ethyl)amino)thiazol-4-yl)pyrido[3,4-d]pyrimidin-4(3H)-one], the inhibition at 0.1 µM is less than 20%.

With `Nc1nn(-c2nccc3c(=O)[nH]cnc23)cc1-c1ccc(CN2CCCC2)cc1` [Compound 34, 8-(3-amino-4-(4-(pyrrolidin-1-ylmethyl)phenyl)-1H-pyrazol-1-yl)pyrido[3,4-d]pyrimidin-4(3H)-one], the inhibition at 0.1 µM lay within 20 to 50%. Then `COCCN1CCC(CNc2nc(-c3nccc4c(=O)[nH]c(COc5ccc(F)c(Cl)c5)nc34)cs2)CC1` [Compound 101, 2-((3-chloro-4-fluorophenoxy)methyl)-8-(2-(((1-(2-methoxyethyl)piperidin-4-yl)methyl)amino)thiazol-4-yl)pyrido[3,4-d]pyrimidin-4(3H)-one], with 20 to 50%.

Take `CN1CCC(Nc2nc(-c3nccc4c(=O)[nH]c(COCc5ccccc5)nc34)cs2)CC1` [Compound 155, 2-((benzyloxy)methyl)-8-(2-((1-methylpiperidin-4-yl)amino)thiazol-4-yl)pyrido[3,4-d]pyrimidin-4(3H)-one]: the inhibition at 0.1 µM fell in the range of 20 to 50%. For `O=c1[nH]cnc2c(-n3cc(-c4ccccc4CO)cn3)nccc12` [Compound 9, 8-(4-(2-(hydroxymethyl)phenyl)-1H-pyrazol-1-yl)pyrido[3,4-d]pyrimidin-4(3H)-one], the inhibition at 0.1 µM is less than 20%. Take `O=c1[nH]cnc2c(-c3cnn(CCO)c3)nccc12` [Compound 63, 8-(1-(2-hydroxyethyl)-1H-pyrazol-4-yl)pyrido[3,4-d]pyrimidin-4(3H)-one]: the inhibition at 0.1 µM was 20 to 50%. For the compound `O=c1[nH]c(COc2ccc(F)c(Cl)c2)nc2c(-c3csc(NCC4CCN(Cc5ccccc5)CC4)n3)nccc12` [Compound 96, 8-(2-(((1-benzylpiperidin-4-yl)methyl)amino)thiazol-4-yl)-2-((3-chloro-4-fluorophenoxy)methyl) pyrido[3,4-d]pyrimidin-4(3H)-one], the inhibition at 0.1 µM was less than 20%. On to `CCC(O)CNc1nc(-c2nccc3c(=O)[nH]c(COc4ccc(F)c(Cl)c4)nc23)cs1` (centres unmarked) [Compound 95, 2-((3-chloro-4-fluorophenoxy)methyl)-8-(2-((2-hydroxybutyl)amino)thiazol-4-yl)pyrido[3,4-d]pyrimidin-4(3H)-one], for which the inhibition at 0.1 µM was 20 to 50%. On to `CN1CCN(CCNc2nc(-c3nccc4c(=O)[nH]c(COCc5ccccc5)nc34)cs2)CC1` [Compound 151, 2-((benzyloxy)methyl)-8-(2-((2-(4-methylpiperazin-1-yl)ethyl)amino)thiazol-4-yl)pyrido[3,4-d]pyrimidin-4(3H)-one], for which the inhibition at 0.1 µM is less than 20%.

Regarding `CN1CCN(CCNc2nc(-c3nccc4c(=O)[nH]c(COc5ccc(F)c(Cl)c5)nc34)cs2)CC1` [Compound 89, 2-((3-chloro-4-fluorophenoxy)methyl)-8-(2-((2-(4-methylpiperazin-1-yl)ethyl)amino)thiazol-4-yl)pyrido[3,4-d]pyrimidin-4(3H)-one], the inhibition at 0.1 µM is not below 50%. Consider `Cc1nc(-c2nccc3c(=O)[nH]c(COc4ccc(F)c(Cl)c4)nc23)cs1` [Compound 103, 2-((3-chloro-4-fluorophenoxy)methyl)-8-(2-methylthiazol-4-yl)pyrido[3,4-d]pyrimidin-4(3H)-one], for which the inhibition at 0.1 µM is less than 20%.

Consider `Nc1nn(-c2nccc3c(=O)[nH]cnc23)cc1-c1cnn(C2CCNCC2)c1` [Compound 22, 8-(3-amino-1′-(piperidin-4-yl)-1H,1′H-[4,4′-bipyrazol]-1-yl)pyrido[3,4-d]pyrimidin-4(3H)-one], for which the inhibition at 0.1 µM was not below 50%. Take `O=c1[nH]c(COc2cccc(Cl)c2)nc2c(-c3csc(NCCO)n3)nccc12` [Compound 133, 2-((3-chlorophenoxy)methyl)-8-(2-((2-hydroxyethyl)amino)thiazol-4-yl)pyrido[3,4-d]pyrimidin-4(3H)-one]: the inhibition at 0.1 µM fell in the range of 20 to 50%. Turning to `O=c1[nH]cnc2c(-c3csc(NCCCO)n3)nccc12` [Compound 46, 8-(2-((3-hydroxypropyl)amino)thiazol-4-yl)pyrido[3,4-d]pyrimidin-4(3H)-one], the inhibition at 0.1 µM fell in the range of 20 to 50%.

In the case of `CN(C)CCCNc1nc(-c2nccc3c(=O)[nH]cnc23)cs1` [Compound 47, 8-(2-((3-(dimethylamino)propyl)amino)thiazol-4-yl)pyrido[3,4-d]pyrimidin-4(3H)-one], the inhibition at 0.1 µM is 20 to 50%. With `CN(C)CCCNc1nc(-c2nccc3c(=O)[nH]c(COc4ccc(F)c(Cl)c4)nc23)cs1` [Compound 91, 2-((3-chloro-4-fluorophenoxy)methyl)-8-(2-((3-(dimethylamino)propyl)amino)thiazol-4-yl)pyrido[3,4-d]pyrimidin-4(3H)-one], the inhibition at 0.1 µM is not below 50%. Then `CN(C)CCNc1nc(-c2nccc3c(=O)[nH]c(COc4ccc(F)cc4)nc23)cs1` [Compound 126, 8-(2-((2-(dimethylamino)ethyl)amino)thiazol-4-yl)-2-((4-fluorophenoxy)methyl) pyrido[3,4-d]pyrimidin-4(3H)-one], with not below 50%; and `O=c1[nH]c(COc2ccc(Oc3ccccc3)cc2)nc2c(-c3csc(NCCO)n3)nccc12` [Compound 157, 8-(2-((2-hydroxyethyl)amino)thiazol-4-yl)-2-((4-phenoxyphenoxy)methyl) pyrido[3,4-d]pyrimidin-4(3H)-one], with less than 20%. Turning to `N[C@H]1CC[C@@H](Nc2nc(-c3nccc4c(=O)[nH]cnc34)cs2)CC1` [Compound 57, 8-(2-(((1s,4s)-4-aminocyclohexyl)amino)thiazol-4-yl)pyrido[3,4-d]pyrimidin-4(3H)-one], the inhibition at 0.1 µM lay in the range of 20 to 50%.

As to `Nc1nn(-c2nccc3c(=O)[nH]cnc23)cc1-c1cccc(Cl)c1` [Compound 32, 8-(3-amino-4-(3-chlorophenyl)-1H-pyrazol-1-yl)pyrido[3,4-d]pyrimidin-4(3H)-one], the inhibition at 0.1 µM was in the range of 20 to 50%. Then `CCOC(=O)c1nc(-c2nccc3c(=O)[nH]c(COc4ccc(F)c(Cl)c4)nc23)cs1` [Compound 122, ethyl 4-(2-((3-chloro-4-fluorophenoxy)methyl)-4-oxo-3,4-dihydropyrido[3,4-d]pyrimidin-8-yl)thiazole-2-carboxylate], with less than 20%; and `CN1CCC(Nc2nc(-c3nccc4c(=O)[nH]c(COc5cc(F)cc(F)c5)nc34)cs2)CC1` [Compound 131, 2-((3,5-difluorophenoxy)methyl)-8-(2-((1-methylpiperidin-4-yl)amino)thiazol-4-yl)pyrido[3,4-d]pyrimidin-4(3H)-one], with not below 50%; and `C[C@H](O)CNc1nc(-c2nccc3c(=O)[nH]cnc23)cs1` [Compound 39, (S)-8-(2-((2-hydroxypropyl)amino)thiazol-4-yl)pyrido[3,4-d]pyrimidin-4(3H)-one], with not below 50%. As for `CC(C)(c1ccccc1)c1ccc(OCc2nc3c(-c4csc(NCCO)n4)nccc3c(=O)[nH]2)cc1` [Compound 158, 8-(2-((2-hydroxyethyl)amino)thiazol-4-yl)-2-((4-(2-phenylpropan-2-yl)phenoxy)methyl)pyrido [3,4-d]pyrimidin-4(3H)-one], the inhibition at 0.1 µM was less than 20%.
